According to BigSolDB 2.1:

CCCCOC(=O)c1ccc(O)cc1
solubility (mole fraction)
Conditions | 281.05 K | 291.05 K | 301.05 K | 311.05 K | 321.05 K
in acetonitrile | 0.275 | 0.449 | 0.61 | 0.753 | 0.857
in ethyl acetate | 0.424 | 0.501 | 0.591 | 0.688 | 0.781
